Experimental data as given in patent US11912650B2, “Bakuchiol derivatives, pharmaceutically acceptable salts thereof, and preparation method and use of the same” (priority 2020, dated 2024).
Converted amounts (≈) assume the structure as drawn. Read-outs that look alike come from different tables or passages of the source.

Experiments:
MRSA NCTC10442 = assay: Antibacterial activity assay (broth dilution MIC); assay type: cell-based, methicillin-resistant Staphylococcus aureus; settings: Staphylococcus aureus, 37° C., 24 h, compounds 38, 44-45, 58-61, 63-64 with 0.05% Tween 80
Method: (§1) Antibacterial activity assay. The antibacterial activities of all the compounds were determined according to a broth dilution method specified in Clinical and Laboratory Standards Institute (CLSI) guidelines. Bacterial cells were inoculated on a Mueller-Hinton agar (MHA) plate for overnight culture, and the concentration of the bacterial cells was adjusted to about 1×10^6 colony-forming units (CFU)/mL with phosphate buffered saline (PBS). First, a 1000 μg/mL stock solution (a final concentration of dimethyl sulfoxide (DMSO) was ≤2%) was prepared by dissolving a sample in DMSO/H2O. Then, the stock solution was diluted with Mueller-Hinton Broth (MHB) to an initial concentration of 100 μg/mL, and the sample solution (100 μL) was subjected to two-fold gradient dilution with MHB in a 96-well plate, to obtain 100 μg/mL to 0.78 μg/mL serial dilutions. Then, a bacterial suspension (100 μL) was added to each well of the 96-well plate and mixed with the test sample solution (100 μL). Among them, test systems for compounds 38, 44-45, 58-61 and 63-64 contained 0.05% of Tween 80. Finally, the 96-well plate was incubated at 37° C. for 24 hours. Absorbances at 600 nm at 0 and 24 h were measured. An minimum inhibitory concentration (MIC) value was defined as the lowest concentration where no visible bacterial growth occurred. All experiments were carried out in at least two duplicates, and biological repeatability could be achieved.

MRSA N315 = assay: Antibacterial activity assay (broth dilution MIC); assay type: cell-based, methicillin-resistant Staphylococcus aureus; settings: Staphylococcus aureus, 37° C., 24 h, compounds 38, 44-45, 58-61, 63-64 with 0.05% Tween 80
Method: as §1

Gram-positive bacteria = assay: Antibacterial activity against Gram-positive bacteria (MIC summary); assay type: cell-based; settings: 24 h, read-out: minimum inhibitory concentration (MIC) against Gram-positive bacteria
Method: as §1

Gram-negative bacteria = assay: Antibacterial activity against Gram-negative bacteria (MIC summary); assay type: cell-based; settings: 24 h; summary of tables 1 and 2
Method: as §1

S. aureus ATCC29213 = assay: Antibacterial activity assay (broth dilution MIC); assay type: cell-based; settings: Staphylococcus aureus, 37° C., 24 h, compounds 38, 44-45, 58-61, 63-64 with 0.05% Tween 80
Method: as §1

E. coli ATCC25922 = assay: Antibacterial activity assay (broth dilution MIC); assay type: cell-based; settings: Escherichia coli, 37° C., 24 h, compounds 38, 44-45, 58-61, 63-64 with 0.05% Tween 80
Method: as §1

SMILES	MIC (MRSA NCTC10442) [µg/mL]	MIC (MRSA N315) [µg/mL]	MIC (Gram-positive bacteria) [µg/mL]	MIC (Gram-negative bacteria) [µg/mL]	MIC (S. aureus ATCC29213) [µg/mL]	MIC (E. coli ATCC25922) [µg/mL]	MIC (Gram-positive bacteria; summary of tables 1 and 2) [µg/mL]
C=C[C@](C)(/C=C/c1ccc(OCC(=O)N[C@@H](CCCNC(=N)N)C(=O)N[C@@H](CCCNC(=N)N)C(=O)OC)cc1)CCC=C(C)C [Compound 44]	1.56 (≈ 2.43 µM)	0.78 (≈ 1.22 µM)	0.39 to 3.12 (≈ 0.609 to 4.88 µM)	1.56 to 3.12 (≈ 2.43 to 4.88 µM)	0.78 (≈ 1.22 µM)	3.12 (≈ 4.88 µM)	
C=C[C@](C)(/C=C/c1ccc(OCC(=O)N[C@@H](CCCNC(=N)N)C(=O)N[C@@H](CCCNC(=N)N)C(=O)N[C@@H](CCCNC(=N)N)C(=O)OC)cc1)CCC=C(C)C [Compound 45]	1.56 (≈ 1.96 µM)	0.78 (≈ 0.979 µM)	0.39 to 3.12 (≈ 0.489 to 3.92 µM)		0.39 (≈ 0.489 µM)	6.25 (≈ 7.84 µM)	
C=C[C@@](C)(/C=C/c1ccc(OCC(=O)N[C@@H](CCCCN)C(=O)OC)cc1)CCC=C(C)C [Compound 47]	6.25 (≈ 13.7 µM)	6.25 (≈ 13.7 µM)			6.25 (≈ 13.7 µM)	12.5 (≈ 27.4 µM)	
C=C[C@](C)(/C=C/c1ccc(OCC(=O)N[C@@H](CCCNC(=N)N)C(=O)N[C@@H](CCCNC(=N)N)C(N)=O)cc1)CCC=C(C)C [Compound 49]	1.56 (≈ 2.49 µM)	3.12 (≈ 4.99 µM)	0.39 to 3.12 (≈ 0.623 to 4.99 µM)		1.56 (≈ 2.49 µM)	12.5 (≈ 20 µM)	
C=C[C@@](C)(/C=C\c1ccc(OCC(=O)N[C@@H](CCCNC(=N)N)C(=O)N[C@@H](Cc2c[nH]cn2)C(=O)OC)cc1)CCC=C(C)C [Compound 50]	6.25 (≈ 10.1 µM)	6.25 (≈ 10.1 µM)			6.25 (≈ 10.1 µM)	12.5 (≈ 20.1 µM)	
C=C[C@](C)(/C=C/c1ccc(OCC(=O)N[C@@H](CCCNC(=N)N)C(=O)NCCCN(CC)CC)cc1)CCC=C(C)C [Compound 52]	0.78 (≈ 1.34 µM)	0.78 (≈ 1.34 µM)			1.56 (≈ 2.68 µM)	25 (≈ 42.9 µM)	0.39 to 3.12 (≈ 0.669 to 5.36 µM)
C=C[C@](C)(/C=C/c1ccc(OCC(=O)N[C@H](CCCNC(=N)N)C(=O)N2CCN(c3ccc(N4CC(CNC(C)=O)OC4=O)cc3F)CC2)cc1)CCC=C(C)C (some centres unmarked) [Compound 53]	0.78 (≈ 0.989 µM)	0.78 (≈ 0.989 µM)			0.78 (≈ 0.989 µM)	6.25 (≈ 7.92 µM)	0.39 to 3.12 (≈ 0.494 to 3.96 µM)
C=C[C@](C)(/C=C/c1ccc(OCC(=O)N[C@@H](Cc2c[nH]cn2)C(=O)N[C@@H](Cc2c[nH]cn2)C(=O)OC)cc1)CCC=C(C)C [Compound 55]	12.5 (≈ 20.7 µM)	12.5 (≈ 20.7 µM)			12.5 (≈ 20.7 µM)	> 100	
C=C[C@](C)(/C=C/c1ccc(OCC(=O)N[C@@H](CCCNC(=N)N)C(=O)N[C@@H](CCCNC(=N)N)C(=O)N2CCN(c3ccc(N4C[C@H](CNC(C)=O)OC4=O)cc3F)CC2)cc1)CCC=C(C)C [Compound 59]	0.78 (≈ 0.825 µM)	0.78 (≈ 0.825 µM)		1.56 to 3.12 (≈ 1.65 to 3.31 µM)	0.78 (≈ 0.825 µM)	1.56 (≈ 1.65 µM)	0.39 to 3.12 (≈ 0.413 to 3.31 µM)
